# According to patent US20230200391A1, “ACTIVE COMPOUND COMBINATIONS AND FUNGICIDE COMPOSITIONS COMPRISING THOSE” (priority 2020, published 2023):
# Several values for one entry are separate records, joined by “and”; a condition that tells them apart may be missing. Equal entries are not always repeated.
# How the values were obtained:
# Format in all cases: cell-based
# [1] = test system: Alternaria alternata; assay: in vitro-Test with Alternaria alternata
# Description: (§1) Wells of 96-well microtiter plates are filled with 30 μl of a preparation of test compound or compound combination in methanol+emulsifier alkylaryl-polyglycol-ether. Thereafter, the solvent is evaporated in a hood. At the next step, into each well 200 μl of liquid growth medium is given, that has been amended with an appropriate concentration of spores or mycelium suspension of the test fungus.
# (§2) With the aid of a photometer the extinction in all wells is measured at the wavelength of 600 nm.
# (§3) The microtiter plates are incubated for 3 to 7 days at 20° C. and 85% relative humidity. After the incubation inhibition of growth is determined photometrically. Efficacy is calculated in relation to the untreated control, 0% efficacy means fungal growth as high as in untreated control while 100% efficacy means no fungal growth is measured.
# [2] = test system: Diaporthe citri; assay: in vitro-Test with Diaporthe citri
# Description: as §1, §2, §3
# [3] = test system: Cordana musae; assay: in vitro-Test with Cordana musae
# Description: as §1, §2, §3
# [4] = test system: Colletotrichum coccodes; assay: in vitro-Test with Colletotrichum coccodes
# Description: as §1, §2, §3
# [5] = test system: Cercospora beticola; assay: in vitro-Test with Cercospora beticola
# Description: as §1, §2, §3
# [6] = test system: Ustilago segetum var. avenae; assay: in vitro-Test with Ustilago segetum var. avenae
# Description: as §1, §2, §3
# [7] = test system: Fusarium culmorum; assay: in vitro-Test with Fusarium culmorum
# Description: as §1, §2, §3
# [8] = test system: Parastagonospora nodorum; assay: in vitro-Test with Parastagonospora nodorum
# Description: as §1, §2, §3
# [9] = test system: Botrytis cinerea; assay: in vitro-Test with Botrytis cinerea
# Description: as §1, §2, §3
compound,measurement,setting,value
"OC(Cc1ccccc1Cl)(Cn1nc[nH]c1=S)C1(Cl)CC1 (stereo not drawn) [(1.018), prothioconazole]",efficacy %,[1]; 0.004 ppm,26%
same,efficacy %,[1]; 0.02 ppm,13%
same,efficacy %,[1]; 0.1 ppm,37%
same,efficacy %,[2]; 0.004 ppm,14%
same,efficacy %,[2]; 0.1 ppm,98%
same,efficacy %,[2]; 0.5 ppm,99%
same,efficacy %,[3]; 0.004 ppm,3% and 0% and 2%
same,efficacy %,[3]; 0.5 ppm,99%
same,efficacy %,[4]; 0.004 ppm,0%
same,efficacy %,[5]; 0.1 ppm,100%
same,efficacy %,[5]; 0.5 ppm,96%
same,efficacy %,[6]; 0.004 ppm,45%
same,efficacy %,[6]; 0.1 ppm,99%
same,efficacy %,[6]; 0.5 ppm,99%
same,efficacy %,[7]; 0.004 ppm,3%
same,efficacy %,[7]; 0.02 ppm,0%
same,efficacy %,[8]; 0.02 ppm,83%
same,efficacy %,[8]; 0.1 ppm,97%
same,efficacy %,[8]; 0.5 ppm,97%
same,efficacy %,[8]; single compound at 0.004 ppm,2%
inpyrfluxam [(2.027)],efficacy %,[2]; 1 ppm,86% and 84%
same,efficacy %,[3]; 1 ppm,3%
"O=C(NC1CCC1c1ccc(Cl)cc1Cl)c1cccnc1C(F)(F)F (stereo in doubt) [(2.060), cyclobutrifluram]",efficacy %,[1]; 0.04 ppm,80%
same,efficacy %,[1]; 5 ppm,88%
same,efficacy %,[3]; 0.04 ppm,0%
same,efficacy %,[3]; 0.2 ppm,0%
same,efficacy %,[4]; 0.04 ppm,0%
same,efficacy %,[4]; 0.2 ppm,0%
same,efficacy %,[4]; 1 ppm,0%
same,efficacy %,[4]; 5 ppm,12%
same,efficacy %,[9]; 0.04 ppm,49%
same,efficacy %,[9]; 0.2 ppm,77%
same,efficacy %,[9]; 1 ppm,92%
same,efficacy %,[7]; 0.04 ppm,47%
same,efficacy %,[7]; 5 ppm,56%
same,efficacy %,[8]; 5 ppm,0%
same,efficacy %,[8]; single compound at 0.04 ppm,5%
same,efficacy %,[8]; single compound at 0.2 ppm,13%
same,efficacy %,[8]; single compound at 5 ppm,98%
"Cc1cccc(-n2nnn(C)c2=O)c1COc1ccn(-c2ccc(Cl)cc2)n1 [(3.030), metyltetraprole]",efficacy %,[2]; 2 ppm,95%
same,efficacy %,[2]; 10 ppm,99%
same,efficacy %,[3]; 0.08 ppm,44%
same,efficacy %,[3]; 0.4 ppm,70%
same,efficacy %,[3]; 2 ppm,78%
same,efficacy %,[4]; 0.08 ppm,25%
same,efficacy %,[4]; 0.4 ppm,73%
same,efficacy %,[4]; 10 ppm,100%
same,efficacy %,[9]; 0.008 ppm,11%
same,efficacy %,[9]; 0.4 ppm,34%
same,efficacy %,[9]; 2 ppm,41%
same,efficacy %,[9]; 10 ppm,81%
same,efficacy %,[6]; 10 ppm,34%
"CC(C)c1ccc(Cl)cc1CN(C(=O)c1c(C(F)F)nn(C)c1F)C1CC1 [(2.038), isoflucypram]",efficacy %,[1]; 1 ppm,76%
same,efficacy %,[5]; 0.04 ppm,0%
same,efficacy %,[9]; 0.2 ppm,74%
same,efficacy %,[9]; 1 ppm,86%
same,efficacy %,[7]; 0.04 ppm,0%
mancozeb [(5.013)],efficacy %,[1]; 0.16 ppm,0%
same,efficacy %,[1]; 0.8 ppm,0% and 1%
same,efficacy %,[1]; 20 ppm,74%
same,efficacy %,[2]; 0.8 ppm,0%
same,efficacy %,[2]; 20 ppm,96%
same,efficacy %,[3]; 0.16 ppm,0%
same,efficacy %,[3]; 0.8 ppm,0%
same,efficacy %,[3]; 4 ppm,12%
same,efficacy %,[4]; 4 ppm,24%
same,efficacy %,[5]; 20 ppm,98% and 100%
same,efficacy %,[9]; 0.16 ppm,4%
same,efficacy %,[9]; 0.8 ppm,6%
same,efficacy %,[9]; 4 ppm,6%
same,efficacy %,[7]; 0.16 ppm,0%
same,efficacy %,[7]; 0.8 ppm,0%
same,efficacy %,[7]; 4 ppm,0%
same,efficacy %,[8]; single compound at 0.16 ppm,0%
"COC(=O)C(O)(Cn1cncn1)c1ccc(Oc2ccc(Cl)cc2)cc1Cl (stereo not drawn) [(I-1), Methyl 2-[2-chloro-4-(4-chlorophenoxy)phenyl]-2-hydroxy-3-(1,2,4-triazol-1-yl)propanoate]",efficacy %,[2]; 0.1 ppm,0%
same,efficacy %,[2]; 0.5 ppm,96%
same,efficacy %,[3]; 0.02 ppm,0%
same,efficacy %,[3]; 0.1 ppm,5%
same,efficacy %,[3]; 0.5 ppm,15%
same,efficacy %,[3]; 2.5 ppm,99%
same,efficacy %,[4]; 0.1 ppm,0%
same,efficacy %,[4]; 0.5 ppm,32%
same,efficacy %,[5]; 0.5 ppm,100%
same,efficacy %,[5]; 2.5 ppm,100%
same,efficacy %,[9]; 0.02 ppm,3%
same,efficacy %,[9]; 0.2 ppm,0%
same,efficacy %,[9]; 0.5 ppm,27%
same,efficacy %,[6]; 0.02 ppm,9%
same,efficacy %,[6]; 0.5 ppm,96%
same,efficacy %,[6]; 2.5 ppm,98%
same,efficacy %,[7]; 0.02 ppm,14% and 10% and 4%
same,efficacy %,[7]; 0.5 ppm,0%
same,efficacy %,[8]; 0.1 ppm,87%
same,efficacy %,[8]; 0.5 ppm,98%
same,efficacy %,[8]; 2.5 ppm,96%
same,efficacy %,[8]; single compound at 0.02 ppm,0%
"CO/N=C(/C1=NOCCO1)c1ccccc1Oc1ncnc(Oc2ccccc2Cl)c1F [(3.012), fluoxastrobin]",efficacy %,[1]; 0.4 ppm,87%
same,efficacy %,[3]; 2 ppm,74%
same,efficacy %,[3]; 10 ppm,81%
same,efficacy %,[4]; 2 ppm,85%
same,efficacy %,[7]; 0.4 ppm,26%
same,efficacy %,[7]; 2 ppm,34%
same,efficacy %,[7]; 10 ppm,47% and 54%
"CON=C(C(=O)OC)c1ccccc1CON=C(C)c1cccc(C(F)(F)F)c1 [(3.020), trifloxystrobin]",efficacy %,[1]; 0.008 ppm,22%
same,efficacy %,[1]; 0.04 ppm,62%
same,efficacy %,[4]; 0.008 ppm,7%
same,efficacy %,[9]; 0.008 ppm,5%
same,efficacy %,[9]; 0.04 ppm,17%
same,efficacy %,[9]; 0.2 ppm,13%
same,efficacy %,[7]; 0.008 ppm,0%
same,efficacy %,[7]; 0.04 ppm,19%
same,efficacy %,[8]; single compound at 0.008 ppm,32%
same,efficacy %,[8]; single compound at 0.04 ppm,73%
same,efficacy %,[8]; single compound at 1 ppm,97%
"O=C(NCCc1ncc(C(F)(F)F)cc1Cl)c1ccccc1C(F)(F)F [(2.005), fluopyram]",efficacy %,[1]; 0.16 ppm,67%
same,efficacy %,[1]; 20 ppm,89%
same,efficacy %,[5]; 0.16 ppm,25%
same,efficacy %,[5]; 0.8 ppm,0%
same,efficacy %,[5]; 4 ppm,11%
same,efficacy %,[9]; 0.16 ppm,48%
same,efficacy %,[9]; 0.8 ppm,77%
same,efficacy %,[9]; 20 ppm,97%
same,efficacy %,[8]; 4 ppm,49%
same,efficacy %,[8]; 20 ppm,86%
"Cc1nn(C)c(F)c1C(=O)Nc1ccccc1C(C)CC(C)C (stereo not drawn) [(2.017), penflufen]",efficacy %,[1]; 0.04 ppm,10%
same,efficacy %,[1]; 1 ppm,65%
same,efficacy %,[8]; 0.2 ppm,0%
same,efficacy %,[8]; 5 ppm,42%
same,efficacy %,[8]; single compound at 0.04 ppm,0%
same,efficacy %,[8]; single compound at 0.2 ppm,4%
same,efficacy %,[8]; single compound at 1 ppm,17%
same,efficacy %,[8]; single compound at 5 ppm,48%
